Reference: patent US20260008760A1, “DIPEPTIDYL PEPTIDASE 1 INHIBITORS AND USES THEREOF” (Insmed Incorporated, priority 2024, published 2026)

What was measured:
human DPP1 enzyme = human DPP1 enzyme (Homo sapiens, UniProt P53634); assay: Human DPP1 Enzyme IC50 Assay; format: biochemical; design: was first proteolytically processed into its mature form using recombinant human cathepsin L; purchased R&D Systems; conditions: activated recombinant human DPP1, 400 μM H-Gly-Arg-AMC, 10 minutes pre-incubation at 37° C., pH 6.0; average of n runs; read-out: Avg. IC50 (Human DPP1 enzyme IC50 value ranges)
Chain of human DPP1 enzyme (P53634 25-134 limits assumed): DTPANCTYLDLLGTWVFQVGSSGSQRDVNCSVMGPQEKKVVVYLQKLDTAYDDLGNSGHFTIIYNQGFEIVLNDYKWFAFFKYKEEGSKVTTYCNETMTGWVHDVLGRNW
Chain of human DPP1 enzyme (P53634 231-394 limits assumed): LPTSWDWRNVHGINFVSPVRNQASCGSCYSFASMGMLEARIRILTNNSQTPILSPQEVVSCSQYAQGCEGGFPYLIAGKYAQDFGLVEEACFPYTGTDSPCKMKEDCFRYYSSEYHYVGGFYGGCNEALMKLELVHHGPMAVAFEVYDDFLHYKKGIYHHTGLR
Chain of human DPP1 enzyme (P53634 395-463 limits assumed): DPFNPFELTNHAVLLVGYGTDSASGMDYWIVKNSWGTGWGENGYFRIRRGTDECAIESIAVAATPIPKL
Method: Example 97. Human DPP1 Enzyme IC50 Assay
Recombinant human DPP1 enzyme (R&D Systems; Minneapolis, MN) was first proteolytically processed into its mature form using recombinant human cathepsin L (R&D Systems) in a buffer consisting of 20 mM citric acid pH 4.5, 150 mM NaCl, 1 mM EDTA and 10 mM DTT. Test articles were applied to activated human DPP1 enzyme in Assay Buffer (25 mM MES pH 6.0, 50 mM NaCl, 5 mM DTT) in a total reaction volume of 125 μL. 25 μL of compound in Assay Buffer plus 5% DMSO was first added to 50 μL of activated human DPP1 enzyme at a concentration of 1 ng/μL and allowed to pre-incubate for 10 minutes at 37° C. after which 50 μL of 1000 μM H-Gly-Arg-AMC substrate (Bachem; St. Torrance, CA) was added, giving final substrate concentration of 400 μM and a final DMSO concentration of 1%. Substrate cleavage was measured for 90 minutes at 37° C., with fluorescence at Excitation/Emission 350/450 nm measured every 5 minutes. DPP1 concentration was interpolated based on its activity relative to a standard curve of activated human recombinant DPP1 enzyme. IC50 values for each compound were calculated via the XLFit (IDBS Version 5.3.1.3) Add-On to Microsoft Excel using the four parameter fit equation y={A+[(B−A)]/[1+((C/x)^D)]}, which appears as equation number 205 (4 Parameter Logistic Model or Sigmoidal Dose-Response Model) in XLFit. Default constraints were used for each Parameter. IC50 was defined as the compound concentration at which 50% of enzyme activity was inhibited when compared to the no-compound control.

DPP1 in HL-60 cells = DPP1 in HL-60 cells (Homo sapiens, UniProt P53634); assay: DPP1 Cell IC50 assay; format: cell-based; design: host or cells: HL-60 cells; conditions: 60 min pre-incubation, H-Gly-Phe-AFC substrate, average of n runs, read-out: Avg. IC50 (DPP1 Cell IC50 value ranges)
Chain of DPP1 in HL-60 cells (P53634 25-463): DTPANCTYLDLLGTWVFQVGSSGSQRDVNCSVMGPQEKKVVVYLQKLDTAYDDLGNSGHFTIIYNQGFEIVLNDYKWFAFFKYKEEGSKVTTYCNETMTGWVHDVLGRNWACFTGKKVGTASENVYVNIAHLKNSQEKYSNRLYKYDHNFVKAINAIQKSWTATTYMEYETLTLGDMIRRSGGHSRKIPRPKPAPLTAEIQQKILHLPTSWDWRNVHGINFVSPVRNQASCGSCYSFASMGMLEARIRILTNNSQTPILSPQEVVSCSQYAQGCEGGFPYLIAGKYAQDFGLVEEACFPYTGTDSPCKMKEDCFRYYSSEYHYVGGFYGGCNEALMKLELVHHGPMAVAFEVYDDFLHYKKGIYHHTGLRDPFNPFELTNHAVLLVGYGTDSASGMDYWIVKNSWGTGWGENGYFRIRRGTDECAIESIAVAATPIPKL
Method: Example 99. DPP1 Cell IC50 assay
HL-60 cells (ATCC; Manassas, VA) were maintained in RPMI-1640 supplemented with 20% heat-inactivated FBS and 1× Antibiotic Antimycotic (Cytiva; Marlborough, MA). Media was changed every three to four days and cells were not allowed to exceed 1×10^6 cells per mL. Prior to assay, cells were collected by centrifugation at 500 rcf for 3 minutes, resuspended in PBS and counted. Cells were diluted in PBS to a concentration of 5×10^5 live cells per mL and transferred to black 96-well plates for assay, 60 μL per well. Test articles were diluted in PBS plus 0.5% DMSO, and 20 μL was added to each assay well. Compound was allowed to pre-incubate with cells with gentle shaking at 100 rpm for 60 minutes at 37° C. in a cell culture incubator maintained at 5% CO2, after which 20 μL of 500 μM H-Gly-Phe-AFC substrate (MP Biomedicals; Solon, OH) was added to each well. Plates were returned to the incubator with shaking at 100 rpm for 30 minutes, after which fluorescence was measured at Excitation/Emission 400/505 nm. % Inhibition was calculated from RFU values compared to control cell wells that received only PBS plus 0.5% DMSO. IC50 values for each compound were calculated via the XLFit (IDBS Version 5.3.1.3) Add-On to Microsoft Excel using the four parameter fit equation y=(A+((B−A)/(1+((C/x)^D)))), which appears as equation number 205 (4 Parameter Logistic Model or Sigmoidal Dose-Response Model) in XLFit. IC50 was defined as the compound concentration at which 50% of enzyme activity was inhibited when compared to the no-compound control.

| SMILES | IC50 (human DPP1 enzyme) [nM] | IC50 (DPP1 in HL-60 cells) [nM] |
| --- | --- | --- |
| N#C[C@H](Cc1ccc(C23CCC(C#N)(CC2)CC3)cc1)NC(=O)[C@@H]1CNCCCO1 [Compound 4] | > 15 | > 2.5 |
| N#C[C@H](Cc1ccc(-c2ccc3c(c2)C2(CCNC2)OC3=O)cc1)NC(=O)[C@@H]1CNCCCO1 (stereo partly drawn) [Compound 25, (2S)—N-[(1S)-1-cyano-2-(4-{3-oxospiro[2-benzofuran-1,3′-pyrrolidin]-6-yl}phenyl)ethyl]-1,4-oxazepane-2-carboxamide] | > 15 | > 2.5 |
| COC1CO[C@H](C(=O)N[C@H](C#N)Cc2ccc(-c3ccc4c(c3)C3(CC4)CCN(C)CC3)cc2F)CNC1C (stereo partly drawn) [Compound E6, (2S)—N-[(1S)-1-cyano-2-(2-fluoro-4-{1′-methyl-2,3-dihydrospiro[indene-1,4′-piperidin]-6-yl}phenyl)ethyl]-6-methoxy-5-methyl-1,4-oxazepane-2-carboxamide] | < 5 | > 2.5 |
| Cn1c(=O)oc2cc3c(cc21)-c1cc(F)c(CC(C#N)NC(=O)[C@@H]2CNCCCCO2)cc1OC3 (single isomer, unassigned) [Compound C6] | > 15 | > 2.5 |
| CO[C@@H]1CCNC[C@@H](C(=O)N[C@H](C#N)Cc2ccc(-c3ccc4c(n3)CCCN4)cc2)OC1 [Compound A33, (2S,7R)—N—((S)-1-cyano-2-(4-(5,6,7,8-tetrahydro-1,5-naphthyridin-2-yl)phenyl)ethyl)-7-methoxy-1,4-oxazocane-2-carboxamide] | < 5 | > 2.5 |
| CO[C@@H]1CCNC[C@@H](C(=O)N[C@H](C#N)Cc2ccc(-c3cc4c(C)nc(C)cn4c3)s2)OC1 [Compound A34, (2S,7R)—N-[(1S)-1-cyano-2-(5-{1,3-dimethylpyrrolo[1,2-a]pyrazin-7-yl}thiophen-2-yl)ethyl]-7-methoxy-1,4-oxazocane-2-carboxamide] | > 15 | 1 to 2.5 |
| CN1CCCc2ncc(-c3ccc(C[C@@H](C#N)NC(=O)[C@@H]4CNCCCO4)cc3)cc21 [Compound A40, (2S)—N-[(1S)-1-cyano-2-[4-(5-methyl-7,8-dihydro-6H-1,5-naphthyridin-3-yl)phenyl]ethyl]-1,4-oxazepane-2-carboxamide] | > 15 | > 2.5 |
| N#C[C@H](Cc1ccc(NC(=O)c2csc(-c3cscn3)n2)cc1)NC(=O)[C@@H]1CNCCCO1 [Compound D7, (2S)—N-[(1S)-1-cyano-2-{4-[2-(1,3-thiazol-4-yl)-1,3-thiazole-4-amido]phenyl}ethyl]-1,4-oxazepane-2-carboxamide] | > 15 | > 2.5 |
| CN1CCC2(CCc3cc4c(cc32)-c2cc(F)c(CC(C#N)NC(=O)[C@@H]3CNCCCO3)cc2OC4)CC1 (mixture of isomers) [Compound C3, (2S)—N-(1-cyano-2-{2-fluoro-1′-methyl-8,9-dihydro-6H-spiro[indeno[5,6-c]chromene-10,4′-piperidin]-3-yl}ethyl)-1,4-oxazepane-2-carboxamide] | < 5 | > 2.5 |
| N#CC(Cc1cc2c(cc1F)-c1cc(C3COC3)c(F)cc1CO2)NC(=O)[C@@H]1CNCCCCO1 (mixture of isomers) [Compound B10, (2S)—N-{1-cyano-2-[2,8-difluoro-9-(oxetan-3-yl)-6H-benzo[c]chromen-3-yl]ethyl}-1,4-oxazocane-2-carboxamide] | 5 to 15 | 1 to 2.5 |
| COC1CNC[C@@H](C(=O)N[C@H](C#N)Cc2ccc(-c3ccc4c(c3)CCC(=O)N4C)cc2F)OC1 (some centres unmarked) [Compound A152] | < 5 | < 1 |
| CO[C@@H]1CCNC[C@@H](C(=O)N[C@H](C#N)Cc2ccc(-c3ccc4c(c3)CCC(=O)N4C)cc2)OC1 [Compound A145] | < 5 | 1 to 2.5 |
| CO[C@@H]1CCNC[C@@H](C(=O)NC(C#N)Cc2cc3c(cc2F)-c2ccc(C#N)cc2CO3)OC1 (mixture of isomers) [Compound B11, (2S,7R)—N-(1-cyano-2-{8-cyano-2-fluoro-6H-benzo[c]chromen-3-yl}ethyl)-7-methoxy-1,4-oxazocane-2-carboxamide] | < 5 | 1 to 2.5 |
| CO[C@H]1CCO[C@H](C(=O)N[C@H](C#N)Cc2ccc(-c3ccc4cnn(C5CCN(C6COC6)CC5)c4c3)cc2F)CNC1 [Compound H2] | 5 to 15 | – |
| N#C[C@H](Cc1ccc(-c2cnc3[nH]ccc3n2)cc1)NC(=O)[C@@H]1CNCCCO1 [Compound A16, (2S)—N-[(1S)-1-cyano-2-(4-{5H-pyrrolo[2,3-b]pyrazin-2-yl}phenyl)ethyl]-1,4-oxazepane-2-carboxamide] | > 15 | – |
| N#C[C@H](Cc1ccc(C23CC(C#N)(C2)C3)cc1)NC(=O)[C@@H]1CNCCCO1 [Compound 3] | > 15 | – |
| N#C[C@H](Cc1ccc(-c2ccnc3nc(O)oc23)cc1)NC(=O)[C@@H]1CNCCCO1 [Compound A13, (2S)—N-[(1S)-1-cyano-2-(4-{2-hydroxy-[1,3]oxazolo[4,5-b]pyridin-7-yl}phenyl)ethyl]-1,4-oxazepane-2-carboxamide] | > 15 | – |
| N#C[C@H](Cc1ccc(-c2cc3c(O)ccnn3c2)cc1)NC(=O)[C@@H]1CNCCCO1 [Compound A15, (S)—N—((S)-1-cyano-2-(4-(4-hydroxypyrrolo[1,2-b]pyridazin-6-yl)phenyl)ethyl)-1,4-oxazepane-2-carboxamide] | > 15 | – |
| N#Cc1ccc(C23CC(C[C@@H](C#N)NC(=O)[C@@H]4CNCCCO4)(C2)C3)cc1 [Compound 2] | > 15 | – |
| CO[C@H]1CCO[C@H](C(=O)N[C@H](C#N)Cc2cnc(-c3ccc4c(F)nn(C)c4c3)s2)CNC1 [Compound A170] | 5 to 15 | – |
| CO[C@H]1CCO[C@H](C(=O)N[C@H](C#N)Cc2ccc(-c3ccc4cnn(C5CCN(C)CC5)c4c3)cc2F)CNC1 [Compound H1] | < 5 | – |
| N#Cc1ccc(C23CCC(C[C@@H](C#N)NC(=O)[C@@H]4CNCCCO4)(CC2)CC3)cc1 [Compound 1] | > 15 | – |
| N#Cc1ccc2c(c1)COc1cc(C[C@@H](C#N)NC(=O)[C@@H]3CNCCCCO3)c(F)cc1-2 (single isomer, unassigned) [Compound B8] | > 15 | – |
| Cn1c(=O)oc2ccc3c(c21)COc1cc(C[C@H](C#N)NC(=O)[C@@H]2CNCCCO2)c(F)cc1-3 [Compound C2-B] | > 15 | – |
| CN1CCC2(CCc3ccc4c(c32)COc2cc(CC(C#N)NC(=O)[C@@H]3CNCCCO3)c(F)cc2-4)CC1 (stereo partly drawn) [Compound C4, (2S)—N-(1-cyano-2-{8-fluoro-1′-methyl-2,4-dihydro-1H-spiro[indeno[4,5-c]chromene-3,4′-piperidin]-7-yl}ethyl)-1,4-oxazepane-2-carboxamide] | > 15 | – |
| N#C[C@H](Cc1ccc(-c2cncc3[nH]c(=O)[nH]c23)cc1)NC(=O)[C@@H]1CNCCCO1 [Compound A17, (2S)—N-[(1S)-1-cyano-2-(4-{2-oxo-1H,3H-imidazo[4,5-c]pyridin-7-yl}phenyl)ethyl]-1,4-oxazepane-2-carboxamide] | > 15 | – |
| CN1Cc2cc(F)ccc2-c2ccc(C[C@@H](C#N)NC(=O)[C@@H]3CNCCCO3)cc2C1=O [Compound B3, (2S)—N-[(1S)-1-cyano-2-{13-fluoro-9-methyl-8-oxo-9-azatricyclo[9.4.0.0^{2,7}1]pentadeca-1(11),2,4,6,12,14-hexaen-5-yl}ethyl]-1,4-oxazepane-2-carboxamide] | > 15 | – |
| Cn1nc(F)c2ccc(-c3ncc(C[C@@H](C#N)NC(=O)[C@@H]4CNCC[C@@H](F)CO4)s3)cc21 [Compound A172] | > 15 | – |
